Oligonucleotides are written 5' to 3', each unit as a sugar letter and its base; * is a phosphorothioate linkage, no mark a phosphodiester; rarer units and linkages stand in square brackets, end groups in braces. Plain capitals give the bases only. k = constrained ethyl (cEt); [5mC] = 5-methylcytosine; d = 2'-deoxy (DNA)
How the values were obtained:
AR mRNA [1] = assay: Antisense inhibition of human AR in HuVEC cells, single concentration (electroporation, qRT-PCR RTS3559); format: cell-based
How it was run: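 HuVEC cells electroporated with antisense oligonucleotides at a single concentration. AR mRNA quantified by qRT-PCR using human primer-probe set RTS3559 and normalised to total RNA content by RIBOGREEN.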

AR mRNA [2] = assay: Dose-dependent antisense inhibition of human AR in HuVEC cells (electroporation, qRT-PCR RTS3559, IC50); format: cell-based; settings: HuVEC
How it was run: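 HuVEC cells dosed with antisense oligonucleotides by electroporation and treated approximately 16 hours. AR mRNA quantified by real-time qPCR with primer probe set RTS3559 and normalised to total RNA by RIBOGREEN; IC50 from dose-response.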

[3] = Table 22, 500 nM oligonucleotide, electroporation, approximately 24 hours, relative to untreated control
[4] = Table 34, electroporation, approximately 16 hours
[5] = Table 30, electroporation, approximately 16 hours
[6] = Table 31, electroporation, approximately 16 hours
[7] = Table 24, 1,000 nM oligonucleotide, electroporation, approximately 24 hours, relative to untreated control
[8] = Table 36, electroporation, approximately 16 hours
[9] = Table 33, electroporation, approximately 16 hours

## 584006 (kA*k[5mC]*kA*d[5mC]*dA*dA*dG*dT*dG*dG*dG*dA*d[5mC]*kT*kG*kG; antisense) [compound 584006]
AR mRNA [1]; [3]
  % inhibition: 33%
AR mRNA [2]; [4]
  percent inhibition of AR, 46.9 nM: 21%
  percent inhibition of AR, 187.5 nM: 26%
  percent inhibition of AR, 750.0 nM: 59%
  percent inhibition of AR, 3000.0 nM: 88%
  IC50: 350 nM

## 583688 (antisense kG*k[5mC]*kG*dG*dT*dA*dG*dT*d[5mC]*dG*d[5mC]*dT*dG*k[5mC]*kA*kG) [compound 583688]
AR mRNA [1]; 500 nM ASO, ~24 h, Table 18
  % inhibition: 38%
AR mRNA [2]; [5]
  percent inhibition of AR, 46.9 nM: 3%
  percent inhibition of AR, 187.5 nM: 26%
  percent inhibition of AR, 750.0 nM: 50%
  percent inhibition of AR, 3000.0 nM: 60%
  IC50: 1050 nM

## 549338 (kG*kG*k[5mC]*dT*dG*dT*dG*dA*dT*dG*dA*dT*dG*k[5mC]*kG*kG; antisense) [compound 549338]
AR mRNA [1]; 500 nM ASO, electroporation, ~24 h, Table 1
  % inhibition: 83%
AR mRNA [2]; 55.6 nM, ~16 h, Table 4
  percent inhibition of AR: 32%
AR mRNA [2]; 166.7 nM, ~16 h, Table 4
  percent inhibition of AR: 47%
AR mRNA [2]; 500.0 nM, ~16 h, Table 4
  percent inhibition of AR: 67%
AR mRNA [2]; 1500.0 nM, ~16 h, Table 4
  percent inhibition of AR: 78%
AR mRNA [2]; ~16 h, Table 4
  IC50: 154 nM

## 560099 (kG*kG*kT*dT*dG*dA*dT*dT*dT*dA*dA*dT*dG*kG*kT*kT) [compound 560099]
AR mRNA [1]; 500 nM ASO, ~24 h, Table 5
  % inhibition: 95%
AR mRNA [2]; 31.25 nM, ~16 h, Table 6
  percent inhibition of AR: 13%
AR mRNA [2]; 62.5 nM, ~16 h, Table 6
  percent inhibition of AR: 29%
AR mRNA [2]; 125.0 nM, ~16 h, Table 6
  percent inhibition of AR: 58%
AR mRNA [2]; 500.0 nM, ~16 h, Table 6
  percent inhibition of AR: 89%
AR mRNA [2]; 1000.0 nM, ~16 h, Table 6
  percent inhibition of AR: 94%
AR mRNA [2]; ~16 h, Table 6
  IC50: 100 nM

## 583809 (antisense kT*kG*kT*d[5mC]*d[5mC]*dT*dT*dG*dG*dA*dG*dG*dA*kA*kG*kT) [compound 583809]
AR mRNA [1]; Table 19, 500 nM oligonucleotide, electroporation, approximately 24 hours, relative to untreated control
  % inhibition: 45%
AR mRNA [2]; [6]
  percent inhibition of AR, 46.9 nM: 13%
  percent inhibition of AR, 187.5 nM: 37%
  percent inhibition of AR, 750.0 nM: 68%
  percent inhibition of AR, 3000.0 nM: 81%
  IC50: 360 nM

## 584158 (kG*kG*kT*dT*dA*dA*d[5mC]*dT*dT*dT*d[5mC]*dT*d[5mC]*kT*kG*kA; antisense) [compound 584158]
AR mRNA [1]; [7]
  % inhibition: 69%
AR mRNA [2]; [8]
  percent inhibition of AR, 46.9 nM: 14%
  percent inhibition of AR, 187.5 nM: 37%
  percent inhibition of AR, 750.0 nM: 70%
  percent inhibition of AR, 3000.0 nM: 89%
  IC50: 260 nM

## 583999 (kA*k[5mC]*k[5mC]*dA*dT*dG*d[5mC]*d[5mC]*dG*d[5mC]*d[5mC]*dA*dG*kG*kG*kT; antisense) [compound 583999]
AR mRNA [1]; [3]
  % inhibition: 29%
AR mRNA [2]; [4]
  percent inhibition of AR, 46.9 nM: 13%
  percent inhibition of AR, 187.5 nM: 12%
  percent inhibition of AR, 750.0 nM: 30%
  percent inhibition of AR, 3000.0 nM: 64%
  IC50: 1530 nM

## 584157 (kT*kT*kG*dA*dT*dG*dG*dA*dA*dT*dG*d[5mC]*dT*kG*kA*kT; antisense) [compound 584157]
AR mRNA [1]; [7]
  % inhibition: 69%
AR mRNA [2]; [8]
  percent inhibition of AR, 46.9 nM: 6%
  percent inhibition of AR, 187.5 nM: 6%
  percent inhibition of AR, 750.0 nM: 52%
  percent inhibition of AR, 3000.0 nM: 82%
  IC50: 590 nM

## 583843 (kG*kT*kA*d[5mC]*dA*dT*dG*d[5mC]*dA*dA*dT*d[5mC]*d[5mC]*k[5mC]*k[5mC]*k[5mC]; antisense) [compound 583843]
AR mRNA [1]; Table 20, 500 nM oligonucleotide, electroporation, approximately 24 hours, relative to untreated control
  % inhibition: 35%
AR mRNA [2]; [9]
  percent inhibition of AR, 46.9 nM: 22%
  percent inhibition of AR, 187.5 nM: 40%
  percent inhibition of AR, 750.0 nM: 67%
  percent inhibition of AR, 3000.0 nM: 85%
  IC50: 300 nM
